Assay results reported in patent US8143403B2 (Bristol-Myers Squibb Company, priority 2008, dated 2012).
“And” between values parts separate entries of the source, which are not always exact repeats. Equal entries are not always repeated.

Key:
[1] = biological target: T1, CGRP receptors (SK-N-MC cell membranes) (Homo sapiens, UniProt O60894+Q16602); assay: Saturation/Scatchard analysis of [125I]-CGRP binding to SK-N-MC cell membranes
T1 construct: Crude membranes were prepared from SK-N-MC cells expressing CGRP receptors; endogenous in cells; host or cells: SK-N-MC cells (crude membranes)
T1 sequence (Q16602 23-461): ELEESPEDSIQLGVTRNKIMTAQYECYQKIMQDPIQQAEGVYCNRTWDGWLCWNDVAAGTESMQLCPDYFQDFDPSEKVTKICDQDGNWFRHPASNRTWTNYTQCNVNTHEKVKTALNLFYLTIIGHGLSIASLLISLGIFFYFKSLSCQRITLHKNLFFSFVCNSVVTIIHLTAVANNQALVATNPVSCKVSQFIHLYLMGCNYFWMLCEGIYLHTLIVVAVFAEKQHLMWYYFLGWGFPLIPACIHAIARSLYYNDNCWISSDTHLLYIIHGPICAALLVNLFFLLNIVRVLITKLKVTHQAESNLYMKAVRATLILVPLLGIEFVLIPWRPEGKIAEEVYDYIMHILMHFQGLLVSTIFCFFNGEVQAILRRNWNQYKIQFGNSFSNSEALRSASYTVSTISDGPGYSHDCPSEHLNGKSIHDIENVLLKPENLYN
T1 sequence (O60894 27-148): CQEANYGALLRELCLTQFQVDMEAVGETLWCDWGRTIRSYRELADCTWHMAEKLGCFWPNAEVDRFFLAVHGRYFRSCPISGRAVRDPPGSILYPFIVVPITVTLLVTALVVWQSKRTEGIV
Protocol: FIG. 1. [^125I]-CGRP Saturation/Scatchard Analysis. [^125I]-CGRP saturation using SK-N-MC membranes in the absence (filled squares) and presence (all others) of CGRP antagonist example 20. Inset depicts a Scatchard plot of same data.
Saturation/Scatchard Analysis. The nature of the interaction between the human CGRP peptide and example 20 was studied in detail using saturation binding experiments. The binding of increasing concentrations of [^125I]-CGRP to SK-N-MC cell membranes was measured in the absence (control condition) and in the presence of 300 pM and 600 pM example 20. Saturation data were analyzed using a one site binding equation to estimate apparent equilibrium dissociation constant (Kd) and the maximum number of binding sites (Bmax) (Prizm v4.0, Graphpad). The impact of the addition of example 20 to the binding parameters (Kd, Bmax) of [^125I]-CGRP binding was measured and compared. […] Example 20 was evaluated in 3 separate experiments (for representative dataset, see FIG. 1. [^125I]-CGRP Saturation/Scatchard Analysis). Functional Antagonism/Schild analysis. Agonist stimulation of CGRP receptor complex leads to cyclic AMP (adenosine 3′5′-cyclic monophosphate) production via Gs-dependent activation of an adenylate cyclase (Juaneda C et al., TiPS, 2000; 21:432-438). Consequently, CGRP receptor antagonists inhibit CGRP-induced cyclic AMP formation in SK-N-MC cells which natively express the CGRP receptor complex (Doods H et al., Br J Pharmacol, 2000; 129(3):420-423). Example 20 was evaluated for its ability to block CGRP induced cAMP formation using a commercially available cAMP HTRF kit (catalog number 62AM2PEC, CisBio International). […] The cells were lysed with lysis reagent and cAMP concentrations were determined by HTRF according to the manufacturer's instructions. A standard curve using known quantities of cAMP was evaluated in parallel to allow conversion of HTRF ratio to nM cAMP. The resulting curves were then evaluated using a Gaddum/Schild equation individually and with global fitting (Prizm v4.0, Graphpad). […]

CGRP receptor complex = CGRP receptor complex (Homo sapiens, UniProt O60894+Q16602); assay: Functional antagonism/Schild analysis, CGRP-stimulated cAMP production (HTRF) in SK-N-MC cells; format: cell-based
Sequence of CGRP receptor complex (Q16602 23-461): as the sequence (Q16602 23-461) above
Sequence of CGRP receptor complex (O60894 27-148): as the sequence (O60894 27-148) above
Protocol: Saturation/Scatchard Analysis. […] Saturation data were analyzed using a one site binding equation to estimate apparent equilibrium dissociation constant (Kd) and the maximum number of binding sites (Bmax) (Prizm v4.0, Graphpad). […] Functional Antagonism/Schild analysis. Agonist stimulation of CGRP receptor complex leads to cyclic AMP (adenosine 3′5′-cyclic monophosphate) production via Gs-dependent activation of an adenylate cyclase (Juaneda C et al., TiPS, 2000; 21:432-438). Consequently, CGRP receptor antagonists inhibit CGRP-induced cyclic AMP formation in SK-N-MC cells which natively express the CGRP receptor complex (Doods H et al., Br J Pharmacol, 2000; 129(3):420-423). […] A Schild analysis format was used, which allowed investigation of the mechanism of antagonism. […] Various concentrations of CGRP were added and the cells were allowed to incubate 30 min at room temperature. The cells were lysed with lysis reagent and cAMP concentrations were determined by HTRF according to the manufacturer's instructions. A standard curve using known quantities of cAMP was evaluated in parallel to allow conversion of HTRF ratio to nM cAMP. The resulting curves were then evaluated using a Gaddum/Schild equation individually and with global fitting (Prizm v4.0, Graphpad). […] To obtain a global fit the following parameters were shared (top, bottom, logEC50, Hill slope and pA2) and all curves were fit simultaneously. […] Non-Terminal Method for Assessing In Vivo Efficacy of Small Molecule CGRP-Receptor Antagonists in Mammals Overview. […] Non-human primates (e.g., marmosets) are the only animals known to have human-like CGRP receptor pharmacology conferred by the presence of the specific amino acid residue (Trp74) in their RAMP1 sequence which is responsible for the phenotype of the human receptor (Mallee et al. J Biol Chem 2002 277:14294). […]

Structure (SMILES): O=C(O[C@@H]1CC[C@@H](c2cccc(F)c2F)Cc2cccnc21)N1CCC(n2c(=O)[nH]c3ncccc32)CC1 [Example 20]
- effect on maximum binding sites of [125I]-CGRP binding (Bmax) ([1]; 300 pM and 600 pM example 20 vs control): without significantly changing the maximum binding sites
- effect on Kd of [125I]-CGRP binding ([1]; 300 pM and 600 pM example 20 vs control, 3 experiments): dose-dependently increased the Kd
- mechanism of inhibition of [125I]-CGRP binding ([1]; saturation binding): competitive mechanism of inhibition
- effect on maximal CGRP response (cAMP production) (CGRP receptor complex; 15 min pre-incubation, 0.3 to 24 nM antagonist): without altering the maximal response
- Kb (CGRP receptor complex; global Gaddum/Schild fit, Schild slope of 1, two datasets): 0.247 ± 0.04 nM
- Schild slope (CGRP receptor complex; global fits with unconstrained Schild slope, two separate experiments): 1.17 and 0.8
